Experimental findings from patent publication US20100146645A1, “TRANSGENIC ANIMAL MODEL FOR MODELLING PA[…], A METHOD FOR IDENTIFYING COMPOUNDS FOR TREATMENT OF DISEASES OR DISORDERS CAUSED BY PA[…] AND A METHOD FOR USING WFS1 PROTEIN AS A TARGET FOR I[…] COMPOUNDS AGAINST PA[…]” (priority 2006, published 2010) are described below.

In test [1] the test system is Wfs1 −/− mice. As to the kind of experiment: Light-dark cage test, vocalization. It counts as in vivo, mouse. To be noted: Wfs1 −/− mice (30% vocalized), anxiolytic dose of diazepam injected. The protocol:
The cage was divided into two: a ⅔ part was lighted and a ⅓ part with darkened cover. The light part was divided into three equal parts, so that the most aversive part was the third part, which is located most distantly from the dark part. Anxious animals preferred to remain mostly in the dark part and avoided the aversive light partition. The experiment was performed one week after the elevated plus-maze experiment and no preliminary isolation of the animals was applied. Lighting level in the light part of the cage was 270 lux.
Namely, the female Wfs1 −/− mice performed 1.5-2 times less entrances to the various parts of the light partition, if compared to the wild type mice (FIG. 7) and the duration of their stay in the light part was twice shorter (FIG. 8). […] In the test cage 30% of the Wfs1 −/− mice vocalized.

Test [2] concerns Wfs1 −/− mice. Put plainly: Elevated plus-maze, effect of diazepam on anxiety behaviour and vocalization. The class given is in vivo, mouse.

For the compound `CN1C(=O)CN=C(c2ccccc2)c2cc(Cl)ccc21` [diazepam], in test [1], the “Vocalization in the test cage” value was “completely removed”. For the same compound, in test [2] (Wfs1-deficient mice, diazepam 1 mg/kg), the “Suppressed exploratory activity and risk behaviour” value is given as “significantly reduced”. Besides, the Stress-induced vocalization result is reported as “not effective” in test [2] (Wfs1 −/− mice, diazepam 0.5 mg/kg) and “removed” in test [2] (Wfs1 −/− mice, diazepam 1 mg/kg). Moreover, the “Vocalization (share of vocalizing mice)” value in test [2] (Wfs1 −/− mice, diazepam group, physiological saline group 24%) turned out to be 0%. For the same compound, in test [2] (female Wfs1 −/− homozygotes, diazepam 1 mg/kg vs physiological saline, FIG. 4), the “Time spent on the open arms of the cage” value is “increased”. In addition, the “Number of downwards examinations (head dippings) from the open arms” value in test [2] (female Wfs1 −/− homozygotes, diazepam 1 mg/kg vs physiological saline, FIG. 5) is “increased”. In addition, the Risk avoidance behaviour result in test [2] (female Wfs1 −/− homozygotes, diazepam 1 mg/kg vs physiological saline, FIG. 6) is recorded as “significantly decreased”.
